Like-named read-outs stand apart in the source and are kept apart here. Where a SMILES comes first, the peptide text is derived from it.
What was measured:
Bumblebee = test: Bee oral toxicity test adapted from OECD Test No. 247 (Bumblebee, Acute Oral Toxicity Test); format: in vivo; details: after 96 hours of application, compared to Imidacloprid (FIG. 10)
Protocol: Bee oral testing protocol was carried out adapted from OECD Test No. 247: Bumblebee, Acute Oral Toxicity Test. The toxicity of SB—P-46 was compared with a negative control of sucrose or vehicle, and with a current commercial insecticide Imidacloprid.

[1] = test system: Amrasca biguttula (leaf hopper); details: unformulated; 3 and 7 days after application (FIG. 16)
From the text: (§1) The data has been processed in the ARM Field Trials software under license.

Aphis fabae = details: unformulated; for reduction in Aphis fabae numbers as a percentage of untreated control crop: vining peas
From the text: as §1

Aphis gossypii = details: Greece; cotton; unformulated; counted 3 days following application (FIG. 14)
From the text: as §1
AgriScience conducted a field trial in Greece, investigating the efficacy of insecticidal peptides on aphids on cotton crop.

Myzus persicae = details: unformulated peptide; leaf dip; mortality assessed at 72, 96 and 120 hours; compared to vehicle and Spirotetramat (FIGS. 6 and 7)
Protocol: Dip a 2.5 cm leaf disc into 3 ml of treatment solution allowing the treatment to coat the leaf. Leave the disc to dry for 1 hour and place onto the set agar. Place insects (aphids) onto each of the leaf discs. Each unit is sealed with a close-fitting, ventilated lid. Place the agar dishes in a small plastic tray lined with moist tissue paper and ensure the water trays in the bottom of the incubator are filled with clean water and place within the incubator. An assessment of mortality is made at 72, 96 and 120 hours. Leaf dip assays were performed with unformulated SB—P-46, and compared to a negative control vehicle and a current commercial insecticide Spirotetramat.

CC(C)C[C@H](NC(=O)[C@H](CCCNC(=N)N)NC(=O)[C@@H]1CCCN1C(=O)[C@H](CO)NC(=O)[C@H](Cc1ccccc1)NC(=O)[C@@H]1CCCN1C(=O)[C@@H]1CCCN1C(=O)[C@H](CO)NC(=O)[C@H](Cc1ccc(O)cc1)NC(=O)[C@@H]1CCCN1C(=O)[C@@H]1CCCN1C(=O)[C@@H](N)CO)C(N)=O [SB—P-46, [Hy]-SPPYSPPFSPRL-[NH2]] (H-SPPYSPPFSPRL-NH2)
toxicity to bees (% survival) (Bumblebee): far lower toxicity | activity against naturally infested Amrasca biguttula (leaf hopper) [1]: acted comparably to Flipper insecticide | reduction in Aphis fabae numbers as a percentage of untreated control crop (Aphis fabae; Field trial 1, Chatteris location, counted 14 days following application (FIG. 11)): performed comparably to the conventional insecticides Stealth and Teppeki | reduction in Aphis fabae numbers as a percentage of untreated control crop (Aphis fabae; Wigtoft location, counted 4 days following application (FIG. 12)): similarly efficacious activity | activity against naturally infested Aphis fabae (Aphis fabae; further field trials, 4 and 8 days after application (FIG. 15)): acted comparably to Hallmark Zeon insecticide | reduction in Aphis fabae numbers as a percentage of untreated control crop (Aphis fabae; third PGRO trial (slot trial), Holbeach location, counted 7 days following application, low aphid infestation (FIG. 13)): performed as efficaciously as the conventional pesticides tested | reduction in Aphis gossypii numbers as a percentage of untreated control crop (Aphis gossypii): close efficacy to the conventional pesticide equivalent tested | activity against Myzus persicae (mortality) (Myzus persicae): good activity

— patent publication US12281143B1, “Insect neuropeptides 1” (Solasta Bio Limited, priority 2023, dated 2025)
